According to article PMC9481570, “A small molecule antagonist of SMN disrupts the interaction between SMN and RNAP II” (Nature Communications, 2022):

Columns and labels:
[1] = target: TDRD3 (Homo sapiens, UniProt Q9H7E2); assay: ITC binding to TDRD3; set-up: TDRD3 (aa 554–611); His (N, cleaved yes); made in house; host or cells: E. coli BL21 (DE3) Codon plus RIL; conditions: Supplementary Figs. 2 and 11b (VP-ITC); read-out: Kd, ITC binding curve, TDRD3
Text: (§1) The coding DNA fragments of following Tudor domains were cloned into pET28-MHL vector: SMN (aa 82–147), UHRF1 (aa 126–285), SMNDC1 (aa 53–130), TDRD3 (aa 554–611), SND1 (aa 650–910), TDRD2 (aa 327–420), FXR1 (aa 2–132), PHF1 (aa 28–87), SGF29 (aa 115–293), JMJD2A (aa 897–1101), 53BP1 (aa 1483–1606), SETDB1 (aa 190–410), LBR (aa 1–67), ZGPAT (aa 120–271). The coding regions of chromodomain of CBX7 (aa 8–62), PWWP domain of DNMT3A (aa 275–417), WD40 repeats of WDR5 (aa 24–334) and CW domain of ZCWPW2 (aa 21–78) were also subcloned into pET28-MHL vector to generate N-terminally His-tagged fusion protein. The MBT repeats of L3MBTL1 (aa 200–522) and L3MBTL2 (aa 170–625) were subcloned into pET28GST-LIC vector to generate N-terminally GST-His-tagged fusion protein. All the plasmids were generated by ligase independent cloning (Vazyme Biotech, C112 or ABclonal Technology, RK21020). […] The molecular weight of all protein samples was measured by mass spectrometry.
(§2) For the ITC measurement, the concentrated proteins were diluted into 20 mM Tris-HCl, pH 7.5, 150 mM NaCl (ITC buffer); the lyophilized compounds were dissolved in the same buffer, and the pH value was adjusted by adding 2 M NaOH or 2 M HCl. […] Compound concentrations were calculated from the mass and the volume of the solvent. […]

[2] = target: T1, SMN_W102Y (Homo sapiens, UniProt Q16637, W102Y); assay: ITC binding to SMN Tudor mutant W102Y; conditions: Fig. 3d
T1 construct: SMN (aa 82–147); His (N, cleaved yes); made in house; host or cells: E. coli BL21 (DE3) Codon plus RIL
Text: as §1, §2

[3] = target: T2, SMNDC1 (Homo sapiens, UniProt O75940); assay: ITC binding to SMNDC1; conditions: Supplementary Fig. 2; read-out: Kd, ITC binding curve, SMNDC1
T2 construct: SMNDC1 (aa 53–130); His (N, cleaved yes); made in house; host or cells: E. coli BL21 (DE3) Codon plus RIL
Text: as §1, §2

[4] = target: T3, SMN_Y127F (Homo sapiens, UniProt Q16637, Y127F); assay: ITC binding to SMN Tudor mutant Y127F; conditions: Fig. 3d
T3 construct: cloned into pET28-MHL vector: SMN (aa 82–147); His (N, cleaved yes); made in house; host or cells: E. coli BL21 (DE3) Codon plus RIL
Text: as §1, §2

[5] = target: T4, SMN_Y109A (Homo sapiens, UniProt Q16637, Y109A); assay: ITC binding to SMN Tudor mutant Y109A; conditions: Fig. 3d
T4 construct: SMN (aa 82–147); His (N, cleaved yes); made in house; host or cells: E. coli BL21 (DE3) Codon plus RIL
Text: as §1, §2

[6] = target: T5, SMN_N132D (Homo sapiens, UniProt Q16637, N132D); assay: ITC binding to SMN Tudor mutant N132D; conditions: Fig. 3d
T5 construct: cloned into pET28-MHL vector: SMN (aa 82–147); His (N, cleaved yes); made in house; host or cells: E. coli BL21 (DE3) Codon plus RIL
Text: as §1, §2

[7] = target: T6, SND1_F740W (Homo sapiens, UniProt Q7KZF4, F740W); assay: ITC binding to SND1 mutant F740W; conditions: Supplementary Fig. 11c, iTC-200; read-out: Kd, ITC binding curve, SND1_F740W
T6 construct: SND1 (aa 650–910); His (N, cleaved yes); made in house; host or cells: E. coli BL21 (DE3) Codon plus RIL
Text: as §1, §2

[8] = target: T7, 53BP1 (Homo sapiens, UniProt Q12888); assay: ITC binding to 53BP1; conditions: Fig. 1c
T7 construct: 53BP1 (aa 1483–1606); His (N, cleaved yes); made in house; host or cells: E. coli BL21 (DE3) Codon plus RIL
Text: as §1, §2

[9] = target: T8, SGF29 (Homo sapiens, UniProt Q96ES7); assay: ITC binding to SGF29; conditions: Fig. 1c
T8 construct: SGF29 (aa 115–293); His (N, cleaved yes); made in house; host or cells: E. coli BL21 (DE3) Codon plus RIL
Text: as §1, §2

[10] = target: T9, SMN_Y127A (Homo sapiens, UniProt Q16637, Y127A); assay: ITC binding to SMN Tudor mutant Y127A; conditions: Fig. 3d
T9 construct: cloned into pET28-MHL vector: SMN (aa 82–147); His (N, cleaved yes); made in house; host or cells: E. coli BL21 (DE3) Codon plus RIL
Text: as §1, §2

[11] = tested on: UHRF1_TTD R296-binding pocket mutants; assay: ITC binding to UHRF1 TTD R296-binding pocket mutants; conditions: Supplementary Fig. 9e
Text: as §1, §2

T5 sequence (Q16637 82-147 N132D): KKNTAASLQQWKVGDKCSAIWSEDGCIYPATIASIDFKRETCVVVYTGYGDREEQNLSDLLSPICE
T9 sequence (Q16637 82-147 Y127A): as the sequence (Q16637 82-147 N132D) above, with Y46A, D51N counted along it
T7 sequence (Q12888 1483-1606): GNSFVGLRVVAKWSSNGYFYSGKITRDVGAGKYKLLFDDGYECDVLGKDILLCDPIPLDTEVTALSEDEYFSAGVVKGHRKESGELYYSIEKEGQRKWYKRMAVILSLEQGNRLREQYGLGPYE
T3 sequence (Q16637 82-147 Y127F): as the sequence (Q16637 82-147 N132D) above, with Y46F, D51N counted along it
TDRD3, sequence (Q9H7E2 554-611): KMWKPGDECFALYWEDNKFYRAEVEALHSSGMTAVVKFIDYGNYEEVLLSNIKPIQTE
T4 sequence (Q16637 82-147 Y109A): as the sequence (Q16637 82-147 N132D) above, with Y28A, D51N counted along it
T6 sequence (Q7KZF4 650-910 F740W): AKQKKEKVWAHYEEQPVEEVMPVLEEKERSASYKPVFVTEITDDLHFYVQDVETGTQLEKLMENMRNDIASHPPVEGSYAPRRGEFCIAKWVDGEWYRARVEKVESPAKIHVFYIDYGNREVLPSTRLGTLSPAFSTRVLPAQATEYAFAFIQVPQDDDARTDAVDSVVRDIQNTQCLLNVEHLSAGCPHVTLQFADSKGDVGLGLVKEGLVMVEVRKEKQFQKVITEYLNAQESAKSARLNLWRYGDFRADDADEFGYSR
T2 sequence (O75940 53-130): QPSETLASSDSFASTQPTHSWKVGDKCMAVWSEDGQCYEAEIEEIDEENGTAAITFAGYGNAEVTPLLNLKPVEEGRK
T1 sequence (Q16637 82-147 W102Y): as the sequence (Q16637 82-147 N132D) above, with W21Y, D51N counted along it
T8 sequence (Q96ES7 115-293): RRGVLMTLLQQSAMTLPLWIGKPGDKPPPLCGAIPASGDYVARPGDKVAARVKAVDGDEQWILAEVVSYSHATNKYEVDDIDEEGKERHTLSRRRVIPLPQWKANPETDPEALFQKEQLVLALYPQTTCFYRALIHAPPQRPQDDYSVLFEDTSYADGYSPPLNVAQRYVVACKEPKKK

## Cn1c2c(c(=N)c3c1CCC3)CCC2 [Compound 1, 4-methyl-2,3,4,5,6,7-hexahydrodicyclopenta[b,e]pyridin-8(1H)-imine]
[1]
  Kd: 11 ± 1 µM
[2]
  Kd: 8.3 ± 1.1 µM
[3]
  Kd: 2.8 ± 0.2 µM
[4]
  Kd: 4 ± 0.2 µM
[5]
  Kd: 15 ± 1 µM
[6]
  Kd: 3.3 ± 0.1 µM
[7]
  Kd: 38 ± 8 µM
[8]
  Kd: > 244 µM
[9]
  Kd: > 244 µM
[10]
  Kd: > 100 µM
[11]
  binding to UHRF1_TTD R296-binding pocket mutants: totally disrupted
